Results on 30 molecules are retold here after patent US7135466B2 (Kirin Beer Kabushiki Kaisha, priority 1999, dated 2006).

The structures appear in SMILES notation.

T1 sequence (P10721 26-976): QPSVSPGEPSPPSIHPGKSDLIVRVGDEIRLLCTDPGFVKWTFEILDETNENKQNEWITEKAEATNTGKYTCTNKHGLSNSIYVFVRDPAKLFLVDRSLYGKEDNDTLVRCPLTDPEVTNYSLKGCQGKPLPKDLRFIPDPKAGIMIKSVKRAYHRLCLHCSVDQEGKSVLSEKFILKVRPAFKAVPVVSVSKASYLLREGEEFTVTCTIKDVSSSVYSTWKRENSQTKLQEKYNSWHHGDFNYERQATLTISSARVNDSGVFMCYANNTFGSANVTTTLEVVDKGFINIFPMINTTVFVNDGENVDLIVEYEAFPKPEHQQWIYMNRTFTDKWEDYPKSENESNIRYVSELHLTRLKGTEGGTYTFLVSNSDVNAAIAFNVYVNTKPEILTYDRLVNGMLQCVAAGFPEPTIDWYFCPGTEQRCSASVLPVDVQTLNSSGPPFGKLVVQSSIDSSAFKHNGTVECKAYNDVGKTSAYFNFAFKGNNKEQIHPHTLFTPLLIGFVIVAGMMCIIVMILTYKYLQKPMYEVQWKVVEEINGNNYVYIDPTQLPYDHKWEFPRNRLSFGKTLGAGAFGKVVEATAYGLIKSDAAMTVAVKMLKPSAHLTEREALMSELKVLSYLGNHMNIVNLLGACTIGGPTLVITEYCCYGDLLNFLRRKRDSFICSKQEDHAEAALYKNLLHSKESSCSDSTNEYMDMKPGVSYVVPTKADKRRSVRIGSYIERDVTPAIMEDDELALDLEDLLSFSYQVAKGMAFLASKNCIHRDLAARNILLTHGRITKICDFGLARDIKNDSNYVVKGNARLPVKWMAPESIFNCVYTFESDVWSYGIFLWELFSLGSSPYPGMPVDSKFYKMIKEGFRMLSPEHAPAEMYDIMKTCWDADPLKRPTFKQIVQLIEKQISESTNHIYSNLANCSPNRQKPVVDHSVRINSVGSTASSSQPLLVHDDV

The first assay has as its target T1, c-kit (Homo sapiens, UniProt P10721).
T1 construct: MO7e (human megakaryocytic leukemia cell line) which had been arrested for 20 hr; endogenous in cells; host or cells: MO7e human megakaryocytic leukemia cell line
Kind of assay: Inhibitory activity against c-kit autophosphorylation (MO7e cells, h-SCF). The format is cell-based. The note with it: MO7e cells, 50 ng/ml h-SCF; read-out: c-kit IC50. On the procedure:
Inhibitory Activity Against c-kit Autophosphorylation
MO7e (human megakaryocytic leukemia cell line) which had been arrested for 20 hr was seeded into 96 well plates at an amount of 2×10^5 per well. A solution of a test compound in DMSO was added, and a reaction was then allowed to proceed for one hr. Thereafter, the cells were stimulated by 50 ng/ml of h-SCF for 5 min, followed by replacement with lysate buffer to solubilize the cells.
Next, the solubilized cell sap was transferred to a 96-well plate with an anti-phosphotyrosine antibody (PY-20) previously immobilized thereon, and a reaction was allowed to proceed. Thereafter, the cells were reacted with an anti-c-kit antibody (c-19, Santa Cruz) as a primary antibody and were labelled with GAR (anti-rabbit IgG, horseradish peroxidase, Amersham) as a secondary antibody. Color development was then carried out in a peroxidase color development kit (Sumitomo Bakelite Co., Ltd.), and the absorbance was measured at a wavelength of 450 nm.
By IC50 is commonly meant the point on the concentration scale where inhibition reaches its midpoint. Regarding `COc1cc(Oc2ccnc3cc(OC)c(OC)cc23)ccc1NC(=O)NCCN1CCCCC1` [Example 681, N-{4-[(6,7-Dimethoxy-4-quinolyl)oxy]-2-methoxyphenyl}-N′-(2-piperidinoethyl)urea], the IC50 worked out at 270 nM.

Turning to `COc1cc2nccc(Oc3ccc(NC(=S)NC(=O)Cc4ccccc4F)cc3)c2cc1OC` [Example 729, N-{4-[(6,7-Dimethoxy-4-quinolyl)oxy]phenyl}-N′-[2-(2-fluorophenyl)acetyl]thiourea], the IC50 turned out to be 302 nM.

With `COc1ccccc1NC(=O)COc1ccc(Oc2ccnc3cc(OC)c(OC)cc23)cc1` [Example 776, N1-(2-Methoxyphenyl)-2-{4-[(6,7-dimethoxy-4-quinolyl)oxy]phenoxy}acetamide], the IC50 worked out at 386 nM.

Take `COc1cccc(NC(=O)COc2ccc(Oc3ccnc4cc(OC)c(OC)cc34)cc2)c1` [Example 778, N1-(3-Methoxyphenyl)-2-{4-[(6,7-dimethoxy-4-quinolyl)oxy]phenoxy}acetamide]: the IC50 was 84 nM.

On to `COc1ccc(NC(=O)COc2ccc(Oc3ccnc4cc(OC)c(OC)cc34)cc2)cc1` [Example 780, N1-(4-Methoxyphenyl)-2-{4-[(6,7-dimethoxy-4-quinolyl)oxy]phenoxy}acetamide], for which the IC50 came to 48 nM.

Take `COc1ccc(NCCOc2ccc(Oc3ccnc4cc(OC)c(OC)cc34)cc2)cc1` [Example 781, N-(2-{4-[(6,7-Dimethoxy-4-quinolyl)oxy]phenoxy}ethyl)-N-(4-methoxyphenyl)amine]: the half-inhibitory concentration (IC50) worked out at 135 nM.

In the case of `COc1cc2nccc(Oc3ccc(OCC(=O)Nc4ccccc4C)cc3)c2cc1OC` [Example 782, N1-(2-Methylphenyl)-2-{4-[(6,7-dimethoxy-4-quinolyl)oxy]phenoxy}acetamide], the IC50 was 365 nM.

Take `COc1cc2nccc(Oc3ccc(OCCNc4ccccc4C)cc3)c2cc1OC` [Example 783, N-(2-{4-[(6,7-Dimethoxy-4-quinolyl)oxy]phenoxy}ethyl)-N-(2-methylphenyl)amine]: the IC50 came out at 451 nM.

For the molecule `COc1cc2nccc(Oc3ccc(OCC(=O)Nc4cccc(C)c4)cc3)c2cc1OC` [Example 784, N1-(3-Methylphenyl)-2-{4-[(6,7-dimethoxy-4-quinolyl)oxy]phenoxy}acetamide], the IC50 turned out to be 80 nM.

With `COc1cc2nccc(Oc3ccc(OCCNc4cccc(C)c4)cc3)c2cc1OC` [Example 785, N-(2-{4-[(6,7-Dimethoxy-4-quinolyl)oxy]phenoxy}ethyl)-N-(3-methylphenyl)amine], the concentration for half-maximal inhibition (IC50) turned out to be 71 nM.

Turning to `COc1cc2nccc(Oc3ccc(OCC(=O)Nc4ccc(C)cc4)cc3)c2cc1OC` [Example 786, N1-(4-Methylphenyl)-2-{4-[(6,7-dimethoxy-4-quinolyl)oxy]phenoxy}acetamide], the IC50 is 46 nM.

On to `COc1cc2nccc(Oc3ccc(OCCNc4ccc(C)cc4)cc3)c2cc1OC` [Example 787, N-(2-{4-[(6,7-Dimethoxy-4-quinolyl)oxy]phenoxy}ethyl)-N-(4-methylphenyl)amine], for which the half-inhibitory concentration (IC50) worked out at 37 nM.

In the case of `COc1cc2nccc(Oc3ccc(OCC(=O)Nc4cccc(Cl)c4)cc3)c2cc1OC` [Example 788, N1-(3-Chlorophenyl)-2-{4-[(6,7-dimethoxy-4-quinolyl)oxy]phenoxy}acetamide], the IC50 is 122 nM.

As to `COc1cc2nccc(Oc3ccc(OCC(=O)Nc4ccc(Cl)cc4)cc3)c2cc1OC` [Example 789, N1-(4-Chlorophenyl)-2-{4-[(6,7-dimethoxy-4-quinolyl)oxy]phenoxy}acetamide], the IC50 was determined as 154 nM.

The assay is the same for the next values; noted with them: MO7e cells, h-SCF stimulation; read-out: c-kit IC50.
`COc1cccc(OCCSc2ccc(Oc3ccnc4cc(OC)c(OC)cc34)cc2)c1` [Example 812, 6,7-Dimethoxy-4-(4-{[2-(3-methoxyphenoxy)ethyl]sulfanyl}phenoxy)quinoline]: the IC50 came out at 326 nM.

Consider `COc1ccc(OCCSc2ccc(Oc3ccnc4cc(OC)c(OC)cc34)cc2)cc1` [Example 813, 6,7-Dimethoxy-4-(4-{[2-(4-methoxyphenoxy)ethyl]sulfanyl}phenoxy)quinoline], for which the concentration for half-maximal inhibition (IC50) worked out at 402 nM.

In the case of `COc1cc2nccc(Oc3ccc(SCCOc4ccc(C)cc4)cc3)c2cc1OC` [Example 814, 6,7-Dimethoxy-4-(4-{[2-(4-methylphenoxy)ethyl]sulfanyl}phenoxy)quinoline], the IC50 was determined as 405 nM.

For the molecule `COc1cc2nccc(Oc3ccc(SCCOc4ccccc4C(C)C)cc3)c2cc1OC` [Example 815, 4-(4-{[2-(2-Isopropylphenoxy)ethyl]sulfanyl}phenoxy)-6,7-dimethoxyquinoline], the IC50 worked out at 180 nM.

Regarding `COc1cc2nccc(Oc3ccc(SCCOc4ccc(C(C)C)cc4)cc3)c2cc1OC` [Example 816, 4-(4-{[2-(4-Isopropylphenoxy)ethyl]sulfanyl}phenoxy)-6,7-dimethoxyquinoline], the IC50 is 123 nM.

For `COc1cc2nccc(Oc3ccc(SCCOc4ccccc4C)cc3)c2cc1OC` [Example 817, 6,7-Dimethoxy-4-(4-{[2-(2-methylphenoxy)ethyl]sulfanyl}phenoxy)quinoline], the IC50 is 195 nM.

For the molecule `COc1cc2nccc(Oc3ccc(SCCOc4ccc(Cl)cc4)cc3)c2cc1OC` [Example 818, 4-(4-{[2-(4-Chlorophenoxy)ethyl]sulfanyl}phenoxy)-6,7-dimethoxyquinoline], the IC50 was found to be 205 nM.

As for `COc1cc2nccc(Oc3ccc(SCCOc4ccccc4Cl)cc3)c2cc1OC` [Example 819, 4-(4-{[2-(2-Chlorophenoxy)ethyl]sulfanyl}phenoxy)-6,7-dimethoxyquinoline], the IC50 is 212 nM.

In the case of `COc1cc2nccc(Oc3ccc(SCCOc4cccc(Cl)c4)cc3)c2cc1OC` [Example 820, 4-(4-{[2-(3-Chlorophenoxy)ethyl]sufanyl}phenoxy)-6,7-dimethoxyquinoline], the IC50 is 187 nM.

As to `COc1cc2nccc(Oc3ccc(SCCOc4cccc(F)c4)cc3)c2cc1OC` [Example 821, 4-(4-{[2-(3-Fluorophenoxy)ethyl]sulfanyl}phenoxy)-6,7-dimethoxyquinoline], the IC50 was determined as 184 nM.

Take `COc1cc2nccc(Oc3ccc(SCCOc4ccccc4F)cc3)c2cc1OC` [Example 822]: the IC50 stood at 451 nM.

With `COc1cc2nccc(Oc3ccc(SCCOc4cccc(C)c4)cc3)c2cc1OC` [Example 823, 6,7-Dimethoxy-4-(4-{[2-(3-methylphenoxy)ethyl]sulfanyl}phenoxy)quinoline], the IC50 was determined as 236 nM.

On to `COc1cc2nccc(Oc3ccc(SCCOc4ccc(F)cc4)cc3)c2cc1OC` [Example 824, 4-(4-{[2-(4-Fluorophenoxy)ethyl]sulfanyl}phenoxy)-6,7-dimethoxyquinoline], for which the IC50 amounted to 268 nM.

With `COc1cc2nccc(Oc3ccc(SCCOc4ccc(Cl)cc4Cl)cc3)c2cc1OC` [Example 825, 4-(4-{[2-(2,4-Dichlorophenoxy)ethyl]sulfanyl}phenoxy)-6,7-dimethoxyquinoline], the IC50 is 333 nM.

As to `COc1cc2nccc(Oc3ccc(SCCOc4ccc(C)cc4C)cc3)c2cc1OC` [Example 826, 4-(4-{[2-(2,4-Dimethylphenoxy)ethyl]sulfanyl}phenoxy)-6,7-dimethoxyquinoline], the 50% inhibitory concentration (IC50) came out at 170 nM.

The assay is the same for the next values; noted with them: Mo7e, figure within parentheses in −( ) or >1000( ); at 1000 nM.
What is called inhibition is the change of the read-out against control, counted positive when it falls. In the case of `COc1cc2ncnc(Oc3ccc(OCC(=O)N4CCCCC4)cc3)c2cc1OC` [Example 806, 2-{4-[(6,7-Dimethoxy-4-quinazolinyl)oxy]phenoxy}-1-piperidino-1-ethanone], the inhibition at 1 µM came out at 35%.
